Legend:
[1] = target: T1, purified LasB protein from P. aeruginosa (Pseudomonas aeruginosa, UniProt P14756); assay: Fluorometric assay to determine Ki (Abz-Ala-Gly-Leu-Ala-p-Nitro-Benzyl-Amide substrate); type: biochemical
T1 construct: purchased Merck or Charles River Laboratories
Method in brief: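 Purified P. aeruginosa LasB (10–140 ng/ml) with 250 µM Abz-Ala-Gly-Leu-Ala-p-nitrobenzylamide in 50 mM Tris-HCl pH 7.4, 2.5 mM CaCl2, 0.01% Triton X100, 37 °C; hydrolysis fluorescence (Ex 340/Em 415 nm) followed over 30 min, inhibitor 0.0016–200 µM. Ki = IC50/(1+[S]/Km), Km 214 µM.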

LasB = target: T2, LasB (Pseudomonas aeruginosa, UniProt P14756); assay: Elastin assay to determine % inhibition (Elastin Congo-Red, dialysed culture supernatant); type: biochemical, P. aeruginosa PAO1; conditions: read-out: Elastin hydrolysis % inhibition @ 50 / 25 µM inhibitor concentration
T2 construct: uses as source of enzyme dialysed supernatant from P. aeruginosa PAO1; endogenous in cells; host or cells: P. aeruginosa PAO1 culture supernatant, filtered and dialysed
Method in brief: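 Enzyme source was dialysed PAO1 culture supernatant (50 mM Tris-HCl pH 7.4, 2.5 mM CaCl2), mixed with Elastin Congo-Red and 0.01% Triton X-100. Compound was routinely 50 to 1.56 µM, incubated overnight at 37 °C with shaking. Dye release at OD495 gave % inhibition relative to DMSO and no-enzyme controls.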

T2 sequence (P14756 198-498): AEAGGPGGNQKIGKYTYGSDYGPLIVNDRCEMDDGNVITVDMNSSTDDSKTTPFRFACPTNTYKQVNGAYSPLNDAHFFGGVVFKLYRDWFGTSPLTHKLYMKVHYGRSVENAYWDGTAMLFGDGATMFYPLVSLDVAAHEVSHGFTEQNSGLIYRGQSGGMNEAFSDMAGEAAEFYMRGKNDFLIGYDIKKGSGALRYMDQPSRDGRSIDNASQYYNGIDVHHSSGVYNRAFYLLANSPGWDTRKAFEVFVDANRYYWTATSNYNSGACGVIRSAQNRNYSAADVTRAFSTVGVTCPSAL
T1 sequence (P14756 198-498): as above

| SMILES | Ki [1] | inhibition at 25 µM (LasB) |
| --- | --- | --- |
| COc1ccc(-c2csc(CNC(=O)C3(CC(=O)O)Cc4cc(F)c(F)cc4C3)n2)cc1S(=O)(=O)N1CCC(N(C)C)CC1 [Example 123, 2-[2-[[4-[3-[[4-(dimethylamino)-1-piperidyl]sulfonyl]-4-methoxy-phenyl]thiazol-2-yl]methylcarbamoyl]-5,6-difluoro-indan-2-yl]acetic acid] | < 0.05 µM | 60 to 75% |
| COc1ccc(-c2csc(CNC(=O)C3(CC(=O)[O-])Cc4cc(F)c(F)cc4C3)n2)cc1S(=O)(=O)N1CCC([N+](C)(C)C)CC1 [Example 124, 2-[5,6-difluoro-2-[[4-[4-methoxy-3-[[4-(trimethylammonio)-1-piperidyl]sulfonyl]phenyl]thiazol-2-yl]methylcarbamoyl]indan-2-yl] acetate] | 0.05 to 0.2 µM | 60 to 75% |
| COc1ccc(S(=O)(=O)N2CCC(N(C)C)CC2)cc1-c1csc(CNC(=O)C2(CC(=O)O)Cc3cc(F)c(F)cc3C2)n1 [Example 125, 2-[2-[[4-[5-[[4-(dimethylamino)-1-piperidyl]sulfonyl]-2-methoxy-phenyl]thiazol-2-yl]methylcarbamoyl]-5,6-difluoro-indan-2-yl]acetic acid] | 0.05 to 0.2 µM | 10 to 60% |
| COc1ccc(S(=O)(=O)N2CCC([N+](C)(C)C)CC2)cc1-c1csc(CNC(=O)C2(CC(=O)[O-])Cc3cc(F)c(F)cc3C2)n1 [Example 126, 2-[5,6-difluoro-2-[[4-[2-methoxy-5-[[4-(trimethylammonio)-1-piperidyl]sulfonyl]phenyl]thiazol-2-yl]methylcarbamoyl]indan-2-yl]acetate] | 0.05 to 0.2 µM | 60 to 75% |
| CN1CCN(S(=O)(=O)c2cccc(-c3csc(CNC(=O)C4(CC(=O)O)Cc5ccccc5C4)n3)c2)CC1 [Example 127, 2-[2-[[4-[3-(4-methylpiperazin-1-yl)sulfonylphenyl]thiazol-2-yl]methylcarbamoyl]indan-2-yl]acetic acid] | 0.05 to 0.2 µM | > 75% |
| C[N+]1(C)CCN(S(=O)(=O)c2cccc(-c3csc(CNC(=O)C4(CC(=O)[O-])Cc5ccccc5C4)n3)c2)CC1 [Example 128, 2-[2-[[4-[3-(4,4-dimethylpiperazin-4-ium-1-yl)sulfonylphenyl]thiazol-2-yl]methylcarbamoyl]indan-2-yl]acetate] | 0.2 to 10 µM | 10 to 60% |
| CN(C)CCNS(=O)(=O)c1cccc(-c2csc(CNC(=O)C3(CC(=O)O)Cc4ccccc4C3)n2)c1 [Example 129, 2-[2-[[4-[3-[2-(dimethylamino)ethylsulfamoyl]phenyl]thiazol-2-yl]methylcarbamoyl]indan-2-yl]acetic acid] | 0.2 to 10 µM | 60 to 75% |
| CN1CCN(S(=O)(=O)c2ccc(-c3csc(CNC(=O)C4(CC(=O)O)Cc5ccccc5C4)n3)cc2)CC1 [Example 130, 2-[2-[[4-[4-(4-methylpiperazin-1-yl)sulfonylphenyl]thiazol-2-yl]methylcarbamoyl]indan-2-yl]acetic acid] | 0.05 to 0.2 µM | 60 to 75% |
| CN1CCN(S(=O)(=O)c2cc(-c3csc(CNC(=O)C4(CC(=O)O)Cc5ccccc5C4)n3)ccc2OCCN2CCOCC2)CC1 [Example 132, 2-[2-[[4-[3-(4-methylpiperazin-1-yl)sulfonyl-4-(2-morpholinoethoxy)phenyl]thiazol-2-yl]methylcarbamoyl]indan-2-yl]acetic acid] | < 0.05 µM | > 75% |
| CN1CCN(S(=O)(=O)c2cc(-c3csc(CNC(=O)C4(CC(=O)O)Cc5ccccc5C4)n3)ccc2OCCCN2CCOCC2)CC1 [Example 133, 2-[2-[[4-[3-(4-methylpiperazin-1-yl)sulfonyl-4-(3-morpholinopropoxy)phenyl]thiazol-2-yl]methylcarbamoyl]indan-2-yl]acetic acid] | < 0.05 µM | 60 to 75% |
| CN(C)C1CCN(S(=O)(=O)c2cc(-c3csc(CNC(=O)C4(CC(=O)O)Cc5cc(F)c(F)cc5C4)n3)ccc2OCCN2CCOCC2)CC1 [Example 134, 2-[2-[[4-[3-[[4-(dimethylamino)-1-piperidyl]sulfonyl]-4-(2-morpholinoethoxy)phenyl]thiazol-2-yl]methylcarbamoyl]-5,6-difluoro-indan-2-yl]acetic acid] | 0.05 to 0.2 µM | 60 to 75% |
| CS(=O)(=O)c1cc(-c2csc(CNC(=O)C3(CC(=O)O)Cc4ccccc4C3)n2)ccc1OCCN1CCOCC1 [Example 135, 2-[2-[[4-[3-methylsulfonyl-4-(2-morpholinoethoxy)phenyl]thiazol-2-yl]methylcarbamoyl]indan-2-yl]acetic acid] | < 0.05 µM | > 75% |
| C[N+]1(CCOc2ccc(-c3csc(CNC(=O)C4(CC(=O)[O-])Cc5ccccc5C4)n3)cc2S(C)(=O)=O)CCOCC1 [Example 136, 2-[2-[[4-[4-[2-(4-methylmorpholin-4-ium-4-yl)ethoxy]-3-methylsulfonyl-phenyl]thiazol-2-yl]methylcarbamoyl]indan-2-yl]acetate] | 0.05 to 0.2 µM | 60 to 75% |
| COc1ccc(-c2csc(CNC(=O)C3(CC(=O)O)Cc4ccccc4C3)n2)cc1C(=O)N1CCC(N(C)C)CC1 [Example 137, 2-[2-[[4-[3-[4-(dimethylamino)piperidine-1-carbonyl]-4-methoxy-phenyl]thiazol-2-yl]methylcarbamoyl]indan-2-yl]acetic acid] | 0.05 to 0.2 µM | 10 to 60% |
| COc1ccc(-c2csc(CNC(=O)C3(CC(=O)[O-])Cc4ccccc4C3)n2)cc1C(=O)N1CCC([N+](C)(C)C)CC1 [Example 138, 2-[2-[[4-[4-methoxy-3-[4-(trimethylammonio)piperidine-1-carbonyl]phenyl]thiazol-2-yl]methylcarbamoyl]indan-2-yl]acetate] | 0.2 to 10 µM | 10 to 60% |
| CN(C)C1CCN(S(=O)(=O)c2cc(-c3csc(CNC(=O)C4(CC(=O)O)Cc5cc(F)c(F)cc5C4)n3)ccc2OCCCN2CCCC2)CC1 [Example 139, 2-[2-[[4-[3-[[4-(dimethylamino)-1-piperidyl]sulfonyl]-4-(3-pyrrolidin-1-ylpropoxy)phenyl]thiazol-2-yl]methylcarbamoyl]-5,6-difluoro-indan-2-yl]acetic acid] | 0.05 to 0.2 µM | 10 to 60% |
| C[N+]1(CCc2ccc(-c3csc(CNC(=O)C4(CC(=O)[O-])Cc5ccccc5C4)n3)cn2)CCOCC1 [Example 141, 2-[2-[[4-[6-[2-(4-methylmorpholin-4-ium-4-yl)ethyl]-3-pyridyl]thiazol-2-yl]methylcarbamoyl]indan-2-yl]acetate] | 0.05 to 0.2 µM | 60 to 75% |
| O=C(O)CC1(C(=O)NCc2nc(-c3ccc(OCc4ccncc4)nc3)cs2)Cc2ccccc2C1 [Example 142, 2-[2-[[4-[6-(4-pyridylmethoxy)-3-pyridyl]thiazol-2-yl]methylcarbamoyl]indan-2-yl]acetic acid] | < 0.05 µM | > 75% |
| C[n+]1ccc(COc2ccc(-c3csc(CNC(=O)C4(CC(=O)[O-])Cc5ccccc5C4)n3)cn2)cc1 [Example 143, 2-[2-[[4-[6-[(1-methylpyridin-1-ium-4-yl)methoxy]-3-pyridyl]thiazol-2-yl]methylcarbamoyl]indan-2-yl]acetate] | 0.05 to 0.2 µM | 10 to 60% |
| O=C(O)CC1(C(=O)NCc2nc(-c3ccccc3OC(F)(F)F)cs2)Cc2ccccc2C1 [Example 145, 2-[2-[[4-[2-(trifluoromethoxy)phenyl]thiazol-2-yl]methylcarbamoyl]indan-2-yl]acetic acid] | 0.05 to 0.2 µM | 60 to 75% |
| COc1ccccc1-c1csc(CNC(=O)C2(CC(=O)O)Cc3ccccc3C2)n1 [Example 146, 2-[2-[[4-(2-methoxyphenyl)thiazol-2-yl]methylcarbamoyl]indan-2-yl]acetic acid] | 0.05 to 0.2 µM | 60 to 75% |
| CCc1ccccc1-c1csc(CNC(=O)C2(CC(=O)O)Cc3ccccc3C2)n1 [Example 147, 2-[2-[[4-(2-ethylphenyl)thiazol-2-yl]methylcarbamoyl]indan-2-yl]acetic acid] | 0.05 to 0.2 µM | 60 to 75% |
| O=C(O)CC1(C(=O)NCc2nc(-c3ccccc3CO)cs2)Cc2ccccc2C1 [Example 148, 2-[2-[[4-[2-(hydroxymethyl)phenyl]thiazol-2-yl]methylcarbamoyl]indan-2-yl]acetic acid] | 0.05 to 0.2 µM | 60 to 75% |

From patent EP3628672A1 (priority 2018, dated 2020)
